From patent publication US8198456B2, “Dihydropyridine derivatives as useful as protein kinase inhibitors” (Bayer Intellectual Property GmbH, priority 2006, dated 2012)
Structures can show the parent of a compound that is named as a salt.

target: T1, recombinant human c-MET kinase enzyme domain (Homo sapiens, UniProt P08581); assay: c-MET receptor tyrosine kinase Homogeneous Time Resolved Fluorescence assay (HTRF); format: biochemical; conditions: Biological Example 1 and/or Biological Example 2
T1 construct: Recombinant c-Met kinase domain (amino acids 960-1390); His (N); made in house; host or cells: baculovirus expression system (insect cells; SF21 is named only for the alternative format)
T1 sequence (P08581 960-1390): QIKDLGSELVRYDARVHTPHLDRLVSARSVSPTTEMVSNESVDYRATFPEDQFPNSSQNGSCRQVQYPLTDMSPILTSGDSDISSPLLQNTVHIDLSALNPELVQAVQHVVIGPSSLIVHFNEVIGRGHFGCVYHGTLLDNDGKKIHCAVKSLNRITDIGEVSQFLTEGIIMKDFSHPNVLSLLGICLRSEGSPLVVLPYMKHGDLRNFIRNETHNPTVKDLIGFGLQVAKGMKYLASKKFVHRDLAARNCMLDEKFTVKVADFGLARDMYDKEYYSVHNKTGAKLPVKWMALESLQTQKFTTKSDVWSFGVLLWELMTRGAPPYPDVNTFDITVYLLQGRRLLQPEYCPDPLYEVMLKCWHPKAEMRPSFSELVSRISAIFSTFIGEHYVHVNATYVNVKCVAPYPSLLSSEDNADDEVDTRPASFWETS
Source text: Recombinant c-Met kinase domain (amino acids 960-1390) was produced in a baculovirus expression vector as an N-terminal His-tagged fusion protein and purified on a NiNTA column. The resulting purified enzyme was then used in the following c-Met Homogeneous Time Resolved Fluorescence assay (HTRF) to find compounds of the invention and to perform initial activity determinations. Specifically, this assay measures the ability of compounds of the invention to inhibit the phosphorylation of a randomly synthesized, biotinylated heterocopolymeric polypeptide composed of glutamic acid and tyrosine, with an average length of 100 aa. The assay analyzes the amount of phosphorylated polypeptide produced.
The enzymatic phosphorylation of the biotinylated heterocopolymeric polypeptide was performed in a black 384-well plate at ambient temperature in a reaction mixture containing 50 mM HEPES (pH 7.4), 5 mM MgCl2, 5 mM MnCl2, 0.01% Tween-20, and 2 mM DTT, […] recombinant human c-MET kinase enzyme domain, 37 nM biotinylated heterocopolymeric polypeptide composed of glutamic acid and tyrosine, 20 μM ATP, 1% DMSO in the absence or presence of a compound of the invention. The reaction was stopped after a 20-minute incubation by the addition of 80 mM EDTA.
The formation of phosphorylated heterocopolymeric, biotinylated polypeptide was quantified with the HTRF assay technology using an anti-phosphotyrosine antibody, PT66, conjugated to europium cryptate, mixed with a streptavidin-XL665 conjugate. Reduced or inhibited phosphorylation of the heterocopolymeric, biotinylated polypeptide prevents the anti-phosphotyrosine antibody from binding to the peptide, resulting in a loss of energy transfer to the streptavidin-XL665 conjugate.
Following the 384-well enzymatic phosphorylation reaction outlined above, the detection of phosphorylated heterocopolymeric, biotinylated polypeptide was performed by dilution of the stopped reaction mixture 2-fold with 50 mM HEPES (pH 7.0), 500 mM KF, 0.1% BSA, streptavidin-XL665 (20 nM), and anti-phosphotyrosine antibody PT66-crypate conjugate (6.4 ng/well) and incubation for four hours at ambient temperature. Plates were read in an Envision plate reader (PerkinElmer Life and Analytical Sciences, Inc., MA) simultaneously at 620 nm and 665 nm to obtain signal ratios of 665 nm/620 nm. Results of energy transfer were expressed as signal ratios of 665 nm/620 nm. Negative controls were samples without recombinant c-MET or c-MET treated with 100 mM EDTA.
For determination of IC50 values of particular compounds of the invention, eight serially diluted compound concentrations (at 1:3.16 dilution) were used in the assay. Controls without a compound of the invention or with a reference compound were run in parallel in the same assay plate.

| IC50 | SMILES |
| --- | --- |
| 100 to 500 nM | CC1=C(C#N)C(c2cccc(C(=O)NCCC3CCNCC3)c2)C(C#N)=C(C)N1 [compound 26, 3-(3,5-dicyano-1,4-dihydro-2,6-dimethyl-4-pyridinyl)-N-[2-(4-piperidinyl)ethyl]-benzamide] |
| 500 to 2500 nM | CC(=O)Nc1cccc(C2C(C#N)=C(C)NC(C)=C2C#N)c1 [compound 27, N-[3-(3,5-dicyano-1,4-dihydro-2,6-dimethyl-4-pyridinyl)phenyl]-acetamide] |
| 100 to 500 nM | CC1=C(C#N)C(c2cccc(C(=O)NCCCn3ccnc3)c2)C(C#N)=C(C)N1 [compound 32, 3-(3,5-dicyano-1,4-dihydro-2,6-dimethyl-4-pyridinyl)-N-[3-(1H-imidazol-1-yl)propyl]-benzamide] |
| 500 to 2500 nM | COC(=O)Nc1cccc(C2C(C#N)=C(C)NC(C)=C2C#N)c1 [compound 34, [3-(3,5-dicyano-1,4-dihydro-2,6-dimethyl-4-pyridinyl)phenyl]-carbamic acid, methyl ester] |
| 500 to 2500 nM | CC1=C(C#N)C(c2cccc(NC(=O)c3cccnc3)c2)C(C#N)=C(C)N1 [compound 38, N-[3-(3,5-dicyano-1,4-dihydro-2,6-dimethyl-4-pyridinyl)phenyl]-3-pyridinecarboxamide] |
| < 100 nM | CC1=C(C#N)C(c2cccc(C(=O)Nc3ccccn3)c2)C(C#N)=C(C)N1 [compound 43, 3-(3,5-dicyano-1,4-dihydro-2,6-dimethyl-4-pyridinyl)-N-2-pyridinyl-benzamide] |
| 500 to 2500 nM | CCOCCCNC(=O)c1cccc(C2C(C#N)=C(C)NC(C)=C2C#N)c1 [compound 45, 3-(3,5-dicyano-1,4-dihydro-2,6-dimethyl-4-pyridinyl)-N-(3-ethoxypropyl)-benzamide] |
| 500 to 2500 nM | CC1=C(C#N)C(c2cccc(NC(=O)CBr)c2)C(C#N)=C(C)N1 [compound 47, 2-bromo-N-[3-(3,5-dicyano-1,4-dihydro-2,6-dimethyl-4-pyridinyl)phenyl]-acetamide] |
| 100 to 500 nM | CC1=C(C#N)C(c2cccc(C(=O)Nc3ccc(C)cn3)c2)C(C#N)=C(C)N1 [compound 51, 3-(3,5-dicyano-1,4-dihydro-2,6-dimethyl-4-pyridinyl)-N-(5-methyl-2-pyridinyl)-benzamide] |
| 500 to 2500 nM | CC1=C(C#N)C(c2cccc(NC(=O)c3ccncc3)c2)C(C#N)=C(C)N1 [compound 57, N-[3-(3,5-dicyano-1,4-dihydro-2,6-dimethyl-4-pyridinyl)phenyl]-4-pyridinecarboxamide] |
| 100 to 500 nM | CC1=C(C#N)C(c2cccc(NC(=O)c3ccccn3)c2)C(C#N)=C(C)N1 [compound 58, N-[3-(3,5-dicyano-1,4-dihydro-2,6-dimethyl-4-pyridinyl)phenyl]-2-pyridinecarboxamide] |
| 500 to 2500 nM | CC1=C(C#N)C(c2cccc(C(=O)Nc3ccc(C(F)(F)F)cn3)c2)C(C#N)=C(C)N1 [compound 60, 3-(3,5-dicyano-1,4-dihydro-2,6-dimethyl-4-pyridinyl)-N-[5-(trifluoromethyl)-2-pyridinyl]-benzamide] |
| 100 to 500 nM | CC1=C(C#N)C(c2cccc(C(=O)Nc3nccs3)c2)C(C#N)=C(C)N1 [compound 61, 3-(3,5-dicyano-1,4-dihydro-2,6-dimethyl-4-pyridinyl)-N-2-thiazolyl-benzamide] |
| 500 to 2500 nM | CC1=C(C#N)C(c2cccc(C(=O)Nc3cccc(C)n3)c2)C(C#N)=C(C)N1 [compound 62, 3-(3,5-dicyano-1,4-dihydro-2,6-dimethyl-4-pyridinyl)-N-(6-methyl-2-pyridinyl)-benzamide] |
| 100 to 500 nM | CC1=C(C#N)C(c2cccc(C(=O)Nc3ccc(N(C)C)cn3)c2)C(C#N)=C(C)N1 [compound 63, 3-(3,5-dicyano-1,4-dihydro-2,6-dimethyl-4-pyridinyl)-N-[5-(dimethylamino)-2-pyridinyl]-benzamide] |
| 100 to 500 nM | CC1=C(C#N)C(c2cccc(NC(=O)c3ncc[nH]3)c2)C(C#N)=C(C)N1 [compound 65, N-[3-(3,5-dicyano-1,4-dihydro-2,6-dimethyl-4-pyridinyl)phenyl]-1H-imidazole-2-carboxamide] |
| 100 to 500 nM | CC1=C(C#N)C(c2cccc(NC(=O)c3cnc[nH]3)c2)C(C#N)=C(C)N1 [compound 66, N-[3-(3,5-dicyano-1,4-dihydro-2,6-dimethyl-4-pyridinyl)phenyl]-1H-imidazole-5-carboxamide] |
| 100 to 500 nM | CC1=C(C#N)C(c2cccc(C(=O)Nc3cccc(N)n3)c2)C(C#N)=C(C)N1 [compound 68, N-(6-amino-2-pyridinyl)-3-(3,5-dicyano-1,4-dihydro-2,6-dimethyl-4-pyridinyl)-benzamide] |
| 100 to 500 nM | CC1=C(C#N)C(c2cccc(C(=O)Nc3ccc(CO)cn3)c2)C(C#N)=C(C)N1 [compound 72, 3-(3,5-dicyano-1,4-dihydro-2,6-dimethyl-4-pyridinyl)-N-[5-(hydroxymethyl)-2-pyridinyl]-benzamide] |

Continued, molecule first:

| SMILES | IC50 |
| --- | --- |
| CC1=C(C#N)C(c2ccc3[nH]nc(-c4ccncc4)c3c2)C(C#N)=C(C)N1 [94.2, 1,4-dihydro-2,6-dimethyl-4-[3-(4-pyridinyl)-1H-indazol-5-yl]-3,5-pyridinedicarbonitrile, acetic acid salt] | < 100 nM |
| CNC(=O)c1n[nH]c2ccc(C3C(C#N)=C(C)NC(C)=C3C#N)cc12 [99.1, 5-(3,5-dicyano-1,4-dihydro-2,6-dimethyl-4-pyridinyl)-N-methyl-1H-indazole-3-carboxamide, TFA salt] | < 100 nM |
| CC1=C(C#N)C(c2ccc3[nH]nc(C(=O)NCCN(C)C)c3c2)C(C#N)=C(C)N1 [103.1, 5-(3,5-dicyano-1,4-dihydro-2,6-dimethyl-4-pyridinyl)-N-[2-(dimethylamino)-ethyl]-1H-indazole-3-carboxamide, TFA salt] | < 100 nM |
| CC1=C(C#N)C(c2ccc3[nH]nc(C(=O)NCCCN(C)C)c3c2)C(C#N)=C(C)N1 [106.1, 5-(3,5-dicyano-2,6-dimethyl-1,4-dihydro-pyridin-4-yl)-1H-indazole-3-carboxylic acid (3-dimethylamino-propyl)-amide, TFA salt] | < 100 nM |
| CC1=C(C#N)C(c2ccc3[nH]nc(C(=O)N(C)C)c3c2)C(C#N)=C(C)N1 [114.1, 5-(3,5-dicyano-2,6-dimethyl-1,4-dihydro-pyridin-4-yl)-1H-indazole-3-carboxylic acid dimethylamide, TFA salt] | < 100 nM |
| CCCN1CCN(c2n[nH]c3ccc(C4C(C#N)=C(C)NC(C)=C4C#N)cc23)CC1 [165.1, 2,6-dimethyl-4-[3-(4-propyl-piperazin-1-yl)-1H-indazol-5-yl]-1,4-dihydropyridine-3,5-dicarbonitrile, TFA salt] | < 100 nM |
| CCOC(=O)N1CCN(Cc2n[nH]c3ccc(C4C(C#N)=C(C)NC(C)=C4C#N)cc23)CC1 [167.1, 4-[5-(3,5-Dicyano-2,6-dimethyl-1,4-dihydro-pyridin-4-yl)-1H-indazol-3-ylmethyl]-piperazine-1-carboxylic acid ethyl ester, TFA salt] | < 100 nM |
| COC(=O)c1cccc(C2C(C#N)=C(C)NC(C)=C2C#N)c1 [compound 10, 3-(3,5-dicyano-1,4-dihydro-2,6-dimethyl-4-pyridinyl)-benzoic acid, methyl ester] | 100 to 500 nM |
| CNC(=O)c1cccc(C2C(C#N)=C(C)NC(C)=C2C#N)c1 [compound 12, 3-(3,5-dicyano-2,6-dimethyl-1,4-dihydro-pyridin-4-yl)-N-methyl-benzamide, TFA salt] | 500 to 2500 nM |
| CC1=C(C#N)C(c2cccc(C(N)=O)c2)C(C#N)=C(C)N1 [compound 17, 3-(3,5-dicyano-1,4-dihydro-2,6-dimethyl-4-pyridinyl)-benzamide] | 500 to 2500 nM |
| CC1=C(C#N)C(c2cccc(C(=O)Nc3cccnc3)c2)C(C#N)=C(C)N1 [compound 21, 3-(3,5-dicyano-1,4-dihydro-2,6-dimethyl-4-pyridinyl)-N-3-pyridinyl-benzamide] | 100 to 500 nM |
| CNC(=O)c1cccc(C2C(C#N)=C(C)NC(C)=C2C#N)c1 [compound 22, 3-(3,5-dicyano-1,4-dihydro-2,6-dimethyl-4-pyridinyl)-N-methyl-benzamide] | 100 to 500 nM |
| CC1=C(C#N)C(c2cccc(C(=O)NCCc3ccncc3)c2)C(C#N)=C(C)N1 [compound 23, 3-(3,5-dicyano-1,4-dihydro-2,6-dimethyl-4-pyridinyl)-N-[2-(4-pyridinyl)ethyl]-benzamide] | 500 to 2500 nM |
